Measurements published in ChEMBL document CHEMBL4196010, “New hydrazides derivatives of isoniazid against Mycobacterium tuberculosis: Higher potency and lower hepatocytotoxicity” (Eur J Med Chem, 2018).
Converted amounts (≈) assume the structure as drawn.

Assays:
[1] = tested on: Mycobacterium tuberculosis; assay: Antitubercular activity against Mycobacterium tuberculosis H37Rv ATCC 27294 after 5 days by microplate alamar blue assay; format: functional; conditions: H37Rv ATCC 27294, 120 h
Salmonella typhimurium [2] = assay: Genotoxicity in Salmonella typhimurium TA100 assessed as increase in revertant colonies at 0.5 uM preincubated for 20 mins followed by addition of top agar and minimal agar and measured after 72 hrs in absence of S9 metabolic activation system by Ames test relative to control; format: toxicity, organism-based; conditions: salmonella enterica subsp. enterica serovar typhimurium
[3] = Cytotoxicity against human HepG2 cells after 3 hrs by WST-1 assay; format: cell-based; conditions: read-out: LC50
Salmonella typhimurium [4] = assay: Genotoxicity in Salmonella typhimurium TA100 assessed as increase in revertant colonies at 5 uM preincubated for 20 mins followed by addition of top agar and minimal agar and measured after 72 hrs in absence of S9 metabolic activation system by Ames test relative to control; format: toxicity, organism-based; conditions: salmonella enterica subsp. enterica serovar typhimurium
Salmonella typhimurium [5] = assay: Genotoxicity in Salmonella typhimurium TA98 assessed as increase in revertant colonies at 5000 uM preincubated for 20 mins followed by addition of top agar and minimal agar and measured after 72 hrs in absence of S9 metabolic activation system by Ames test relative to control; format: toxicity, organism-based; conditions: salmonella enterica subsp. enterica serovar typhimurium
J774.A1 [6] = assay: Cytotoxicity against mouse J774A.1 cells assessed as decrease in cell viability at 100 nM after 20 hrs by resazurin dye-based fluorimetric method; conditions: j774.a1, 20 h, 0.1 µM
Salmonella typhimurium [7] = assay: Genotoxicity in Salmonella typhimurium TA98 assessed as increase in revertant colonies at 0.5 uM preincubated for 20 mins followed by addition of top agar and minimal agar and measured after 72 hrs in absence of S9 metabolic activation system by Ames test relative to control; format: toxicity, organism-based; conditions: salmonella enterica subsp. enterica serovar typhimurium
J774.A1 [8] = assay: Cytotoxicity against mouse J774A.1 cells assessed as decrease in cell viability at 1 uM after 20 hrs by resazurin dye-based fluorimetric method; conditions: j774.a1, 20 h
[9] = tested on: Mycobacterium tuberculosis; assay: Potency index, ratio of pyrazinamide MIC to compound MIC for antitubercular activity against Mycobacterium tuberculosis H37Rv ATCC 27294; format: functional
[10] = tested on: Mycobacterium tuberculosis; assay: Potency index, ratio of ethambutol MIC to compound MIC for antitubercular activity against Mycobacterium tuberculosis H37Rv ATCC 27294; format: functional
Salmonella typhimurium [11] = assay: Genotoxicity in Salmonella typhimurium TA98 assessed as increase in revertant colonies at 500 uM preincubated for 20 mins followed by addition of top agar and minimal agar and measured after 72 hrs in absence of S9 metabolic activation system by Ames test relative to control; format: toxicity, organism-based; conditions: salmonella enterica subsp. enterica serovar typhimurium
J774.A1 [12] = assay: Cytotoxicity against mouse J774A.1 cells assessed as decrease in cell viability at 10 uM after 20 hrs by resazurin dye-based fluorimetric method; conditions: j774.a1, 20 h
Salmonella typhimurium [13] = assay: Genotoxicity in Salmonella typhimurium TA100 assessed as increase in revertant colonies at 500 uM preincubated for 20 mins followed by addition of top agar and minimal agar and measured after 72 hrs in absence of S9 metabolic activation system by Ames test relative to control; format: toxicity, organism-based; conditions: salmonella enterica subsp. enterica serovar typhimurium
Salmonella typhimurium [14] = assay: Genotoxicity in Salmonella typhimurium TA100 assessed as increase in revertant colonies at 50 uM preincubated for 20 mins followed by addition of top agar and minimal agar and measured after 72 hrs in absence of S9 metabolic activation system by Ames test relative to control; format: toxicity, organism-based; conditions: salmonella enterica subsp. enterica serovar typhimurium
Salmonella typhimurium [15] = assay: Genotoxicity in Salmonella typhimurium TA98 assessed as increase in revertant colonies at 5 uM preincubated for 20 mins followed by addition of top agar and minimal agar and measured after 72 hrs in presence of S9 metabolic activation system by Ames test relative to control; format: toxicity, organism-based; conditions: salmonella enterica subsp. enterica serovar typhimurium
Salmonella typhimurium [16] = assay: Genotoxicity in Salmonella typhimurium TA98 assessed as increase in revertant colonies at 5 uM preincubated for 20 mins followed by addition of top agar and minimal agar and measured after 72 hrs in absence of S9 metabolic activation system by Ames test relative to control; format: toxicity, organism-based; conditions: salmonella enterica subsp. enterica serovar typhimurium
Salmonella typhimurium [17] = assay: Genotoxicity in Salmonella typhimurium TA98 assessed as increase in revertant colonies at 50 uM preincubated for 20 mins followed by addition of top agar and minimal agar and measured after 72 hrs in absence of S9 metabolic activation system by Ames test relative to control; format: toxicity, organism-based; conditions: salmonella enterica subsp. enterica serovar typhimurium
J774.A1 [18] = assay: Cytotoxicity against mouse J774A.1 cells assessed as decrease in cell viability at 10 nM after 20 hrs by resazurin dye-based fluorimetric method; conditions: j774.a1, 20 h, 0.01 µM
J774.A1 [19] = assay: Cytotoxicity against mouse J774A.1 cells assessed as decrease in cell viability at 100 uM after 20 hrs by resazurin dye-based fluorimetric method; conditions: j774.a1, 20 h
[20] = Selectivity index, ratio of LC50 for human HepG2 cells to MIC for Mycobacterium tuberculosis H37Rv ATCC 27294; format: toxicity; conditions: read-out: Selectivity Index
Salmonella typhimurium [21] = assay: Genotoxicity in Salmonella typhimurium TA98 assessed as increase in revertant colonies at 500 uM preincubated for 20 mins followed by addition of top agar and minimal agar and measured after 72 hrs in presence of S9 metabolic activation system by Ames test relative to control; format: toxicity, organism-based; conditions: salmonella enterica subsp. enterica serovar typhimurium
[22] = Cytotoxicity against human HepG2 cells after 24 hrs by WST-1 assay; format: cell-based; conditions: read-out: LC50
Salmonella typhimurium [23] = assay: Genotoxicity in Salmonella typhimurium TA100 assessed as increase in revertant colonies at 5 uM preincubated for 20 mins followed by addition of top agar and minimal agar and measured after 72 hrs in presence of S9 metabolic activation system by Ames test relative to control; format: toxicity, organism-based; conditions: salmonella enterica subsp. enterica serovar typhimurium
Salmonella typhimurium [24] = assay: Genotoxicity in Salmonella typhimurium TA100 assessed as increase in revertant colonies at 50 uM preincubated for 20 mins followed by addition of top agar and minimal agar and measured after 72 hrs in presence of S9 metabolic activation system by Ames test relative to control; format: toxicity, organism-based; conditions: salmonella enterica subsp. enterica serovar typhimurium
J774.A1 [25] = assay: Cytotoxicity against mouse J774A.1 cells assessed as decrease in cell viability at 1 nM after 20 hrs by resazurin dye-based fluorimetric method; conditions: j774.a1, 20 h, 0.001 µM
Salmonella typhimurium [26] = assay: Genotoxicity in Salmonella typhimurium TA98 assessed as increase in revertant colonies at 0.5 uM preincubated for 20 mins followed by addition of top agar and minimal agar and measured after 72 hrs in presence of S9 metabolic activation system by Ames test relative to control; format: toxicity, organism-based; conditions: salmonella enterica subsp. enterica serovar typhimurium
Salmonella typhimurium [27] = assay: Genotoxicity in Salmonella typhimurium TA100 assessed as increase in revertant colonies at 5000 uM preincubated for 20 mins followed by addition of top agar and minimal agar and measured after 72 hrs in absence of S9 metabolic activation system by Ames test relative to control; format: toxicity, organism-based; conditions: salmonella enterica subsp. enterica serovar typhimurium
Salmonella typhimurium [28] = assay: Genotoxicity in Salmonella typhimurium TA98 assessed as increase in revertant colonies at 5000 uM preincubated for 20 mins followed by addition of top agar and minimal agar and measured after 72 hrs in presence of S9 metabolic activation system by Ames test relative to control; format: toxicity, organism-based; conditions: salmonella enterica subsp. enterica serovar typhimurium
Salmonella typhimurium [29] = assay: Genotoxicity in Salmonella typhimurium TA98 assessed as increase in revertant colonies at 50 uM preincubated for 20 mins followed by addition of top agar and minimal agar and measured after 72 hrs in presence of S9 metabolic activation system by Ames test relative to control; format: toxicity, organism-based; conditions: salmonella enterica subsp. enterica serovar typhimurium
Salmonella typhimurium [30] = assay: Genotoxicity in Salmonella typhimurium TA100 assessed as increase in revertant colonies at 0.5 uM preincubated for 20 mins followed by addition of top agar and minimal agar and measured after 72 hrs in presence of S9 metabolic activation system by Ames test relative to control; format: toxicity, organism-based; conditions: salmonella enterica subsp. enterica serovar typhimurium
[31] = tested on: Mycobacterium tuberculosis; assay: Antitubercular activity against Mycobacterium tuberculosis; format: functional

Compound CC(=O)Nc1ccc(C)cc1C(F)(F)C(=O)NNC(=O)c1ccncc1 has an MIC [1] of 6.91 µM (≈ 2.5 µg/mL).

With CC(=O)Nc1ccccc1C(F)(F)C(=O)NN=C1CCCCC1 the MIC [1] was > 310 µM.

With CC(=O)Nc1ccccc1C(F)(F)C(=O)NNc1ccccc1 the MIC [1] was > 313 µM.

In the case of CC(=O)Nc1ccc(C)cc1C(=O)C(=O)NNC(=O)c1ccncc1, the “fold change (FC)” value (Salmonella typhimurium [2]) is reported as 1.2, the CC50 at 3 h [3] is reported as > 200 µM and the “fold change (FC)” value (Salmonella typhimurium [4]) is reported as 1.2. For the same compound, the “fold change (FC)” value (Salmonella typhimurium [5]) was 3.4, the Activity (J774.A1 [6]) was 99.5% and the “fold change (FC)” value (Salmonella typhimurium [7]) was 1.2. The Activity (J774.A1 [8]) was 99.2%, the Ratio [9] was 1800 and the Ratio [10] was 30. The “fold change (FC)” value (Salmonella typhimurium [11]) was 1.9, the MIC [1] was 0.45 µM (≈ 0.153 µg/mL) and the Activity (J774.A1 [12]) was 98.2%. For the same compound, the “fold change (FC)” value (Salmonella typhimurium [13]) was 1.4, the “fold change (FC)” value (Salmonella typhimurium [14]) was 1.4 and the “fold change (FC)” value (Salmonella typhimurium [15]) was 1.7. For the same compound, the “fold change (FC)” value (Salmonella typhimurium [16]) was 1.6, the “fold change (FC)” value (Salmonella typhimurium [17]) was 1.8 and the Activity (J774.A1 [18]) was 100%. For the same compound, the Activity (J774.A1 [19]) was 94%, the selectivity ratio [20] was > 444 and the “fold change (FC)” value (Salmonella typhimurium [21]) was 3.4. The CC50 at 24 h [22] was > 200 µM, the “fold change (FC)” value (Salmonella typhimurium [23]) was 1.5 and the Activity (Salmonella typhimurium [24]) was “Toxic”. The Activity (J774.A1 [25]) was 100%, the “fold change (FC)” value (Salmonella typhimurium [26]) was 1 and the “fold change (FC)” value (Salmonella typhimurium [27]) was 1.6. The “fold change (FC)” value (Salmonella typhimurium [28]) was 4, the “fold change (FC)” value (Salmonella typhimurium [29]) was 1.8 and the “fold change (FC)” value (Salmonella typhimurium [30]) was 1.1.

With CC(=O)Nc1ccc(C)cc1C(F)(F)C(=O)NNc1ccccn1 the MIC [1] was > 299 µM.

With COc1ccc(NC(C)=O)c(C(F)(F)C(=O)NNC(=O)c2ccncc2)c1 the MIC [1] was 33.1 µM (≈ 12.5 µg/mL).

CC(=O)Nc1ccc(Cl)cc1C(F)(F)C(=O)NNC(N)=S showed an MIC [31] of 297 µM (≈ 100 µg/mL).

CC[C@@H](CO)NCCN[C@@H](CC)CO [ETHAMBUTOL] showed an MIC [1] of 15.9 µM (≈ 3.25 µg/mL).

In the case of NNC(=O)c1ccncc1 [ISONIAZID], the “fold change (FC)” value (Salmonella typhimurium [2]) is reported as 1.1, the CC50 at 3 h [3] is reported as > 200 µM and the “fold change (FC)” value (Salmonella typhimurium [4]) is reported as 1.2. The “fold change (FC)” value (Salmonella typhimurium [5]) was 4, the Activity (J774.A1 [6]) was 97.3% and the “fold change (FC)” value (Salmonella typhimurium [7]) was 1.5. For the same compound, the Activity (J774.A1 [8]) was 98.7%, the “fold change (FC)” value (Salmonella typhimurium [11]) was 3.7 and the MIC [1] was 0.88 µM (≈ 0.121 µg/mL). For the same compound, the Activity (J774.A1 [12]) was 98.5%, the “fold change (FC)” value (Salmonella typhimurium [13]) was 1.6 and the “fold change (FC)” value (Salmonella typhimurium [14]) was 1.3. The “fold change (FC)” value (Salmonella typhimurium [15]) was 1.3, the “fold change (FC)” value (Salmonella typhimurium [16]) was 1.6 and the “fold change (FC)” value (Salmonella typhimurium [17]) was 2. It also gave an Activity (J774.A1 [18]) of 98.2%, an Activity (J774.A1 [19]) of 90.3% and a selectivity ratio [20] of 119. The “fold change (FC)” value (Salmonella typhimurium [21]) was 1.6, the CC50 at 24 h [22] was 105 µM and the “fold change (FC)” value (Salmonella typhimurium [23]) was 1.4. The Activity (Salmonella typhimurium [24]) was “Toxic”, the Activity (J774.A1 [25]) was 99.5% and the “fold change (FC)” value (Salmonella typhimurium [26]) was 1.3. For the same compound, the “fold change (FC)” value (Salmonella typhimurium [27]) was 1.9, the Activity (Salmonella typhimurium [28]) was “Toxic” and the “fold change (FC)” value (Salmonella typhimurium [29]) was 1.5. The “fold change (FC)” value (Salmonella typhimurium [30]) was 1.4.

With NC(=O)c1cnccn1 [PYRAZINAMIDE] the MIC [1] was 813 µM (≈ 100 µg/mL).

CO[C@H]1/C=C/O[C@@]2(C)Oc3c(C)c(O)c4c(O)c(c(/C=N/N5CCN(C)CC5)c(O)c4c3C2=O)NC(=O)/C(C)=C\C=C\[C@H](C)[C@H](O)[C@@H](C)[C@@H](O)[C@@H](C)[C@H](OC(C)=O)[C@@H]1C [RIFAMPIN] gave an MIC [1] of 1.22 µM (≈ 1 µg/mL).
